Results as given in patent US20050203115A1, “Narcotic-NSAID ion pairs” (priority 2004, published 2005).
Where two headings read alike, the source gives them in different places.

How the values were obtained:
[1] = methanolic solution 61 mg/mL added to HCl 0.1 N
From the text: Measurements were obtained using a Sympatec HELOS model KF particle sizer with SUCELL and R5 lens (0.5-875 μm), pump, and stirrer speeds set to 50% of the maximum value.

[2] = approx. 48 mg in 400 mL, 36.8° C., approximately 12 hours
Experimental: The solutions were stirred by paddles at 150 RPM for approximately 12 hours. […] The standards and sample preparations were measured at 282 nm in a 1 cm cell using a UV spectrophotometer. The results were determined from the linearity curve generated from the standard data.

With `CCC(=O)O[C@](Cc1ccccc1)(c1ccccc1)[C@H](C)CN(C)C.O=C(O)Cc1ccccc1Nc1c(Cl)cccc1Cl` [Propoxyphene Diclofenate, (2S,3R)-(+)-4-(Dimethylamino)-3-methyl-1,2-diphenyl-2-butanol Propionate Diclofenate] the “Particle size Mean” value ([1]; 15 minutes) was 152.4 μm, the “Particle size ≦50%” value ([1]; 15 minutes) was 141.2 μm and the “Particle size ≦90%” value ([1]; 15 minutes) was 287.9 μm. For the same molecule, the “Particle size Mean” value ([1]; 45 minutes) was 155.5 μm, the “Particle size ≦50%” value ([1]; 45 minutes) was 143.0 μm and the “Particle size ≦90%” value ([1]; 45 minutes) was 293.9 μm. The “Particle size Mean” value ([1]; 75 minutes) was 161.7 μm, the “Particle size ≦50%” value ([1]; 75 minutes) was 140.5 μm and the “Particle size ≦90%” value ([1]; 75 minutes) was 308.6 μm. For the same molecule, the “Particle size Mean” value ([1]; 120 minutes) was 149.2 μm, the “Particle size ≦50%” value ([1]; 120 minutes) was 135.4 μm and the “Particle size ≦90%” value ([1]; 120 minutes) was 286.3 μm. For the same molecule, the “Particle size Mean” value ([1]; 150 minutes) was 124.2 μm, the “Particle size ≦50%” value ([1]; 150 minutes) was 110.2 μm and the “Particle size ≦90%” value ([1]; 150 minutes) was 238.4 μm. For the same molecule, the “% Dissolved” value ([2]; water pH 3) was 0.009%, the “mg Dissolved from 48 mg Solution” value ([2]; water pH 3) was 0.004 mg and the “mg/mL Dissolved” value ([2]; water pH 3) was 1.0528e-05 mg/mL. The “% Dissolved” value ([2]; water pH 5) was 74.878%, the “mg Dissolved from 48 mg Solution” value ([2]; water pH 5) was 36.005 mg and the “mg/mL Dissolved” value ([2]; water pH 5) was 0.09 mg/mL. The “% Dissolved” value ([2]; water pH 7) was 75.677%, the “mg Dissolved from 48 mg Solution” value ([2]; water pH 7) was 36.644 mg and the “mg/mL Dissolved” value ([2]; water pH 7) was 0.0916 mg/mL. The “% Dissolved” value ([2]; water pH 9) was 71.168%, the “mg Dissolved from 48 mg Solution” value ([2]; water pH 9) was 34.018 mg and the “mg/mL Dissolved” value ([2]; water pH 9) was 0.08504 mg/mL. The “% Dissolved” value ([2]; water pH 11) was 39.395%, the “mg Dissolved from 48 mg Solution” value ([2]; water pH 11) was 18.700 mg and the “mg/mL Dissolved” value ([2]; water pH 11) was 0.04676 mg/mL.
